Entries after “also recorded” stand apart in the source; their conditions may differ. [5mC] = 5-methylcytosine
How the values were obtained:
[1] = system: EG.7 Ova expressing tumor cells; test: prophylactic anti-tumor efficacy, EG7-OVA tumor model, q7d×3; assay type: in vivo, C57BI/6 mice
Protocol: Efficacy studies. E.G7-OVA or EL-4 thymoma cell lines were used throughout the study. These cells were cultured in vitro according to established methods. […] Tumor measurements were made by repeated perpendicular measurements of tumor dimensions and using the formula: […]
Anti-tumor efficacy induced by subcutaneous immunization was assessed in C57BI/6 (5 animals per group) in a prophylactic immunization model. Mice were immunized subcutaneously with 3 injections on a q7d×3 dosing regimen on Days 0, 7 and 14 at a dose of 100 μg oligonucleotide and 20 μg of OVA antigen dose. […] Mice were monitored 3 times weekly to assess tumor growth and weight gain. Control mice were injected with one of PBS or HBS and […] of OVA antigen on the same schedule described above. Oligonucleotides were encapsulated in a lipid particle having a lipid composition of one of POPC: CHOL: DODAP:PEGCer14 or DSPC: CHOL: DODAP:PEGCer14 each in a ratio of 25:45:20:10. All comparisons of methylated and unmethylated oligonucleotides were done using like lipid particles. Results from these efficacy experiments are detailed in FIGS. 12-15, 18-21, and 25-28. Day 0 on each of the Figures is the day each animal was challenged with the tumor.

B16 cell target = test: CTL response to B16 cell target after multiple epitope immunization; assay type: in vivo, C57BL/6 mice; details: encapsulated PS-ODN 1m (POPC:Chol:DODMA:PEG-DMG) with TRP2 and Gp100 peptides or B16 lysate; 3 injections
Protocol: Targeting multiple antigens and MHC alleles might be achieved by using multiple recombinant antigen mixtures of synthetic peptide epitopes. To improve the immune response against these multi-epitope antigens several adjuvants are under assay. This experiment employs encapsulated PS-ODN 1 m using POPC:Chol:DODMA:PEG-DMG (25:45:20:10 molar ratio) in combination with two murine melanoma antigens TRP2 (H2Kb, […]) and Gp100 (H2Db, […]). C57BL/6 mice were injected 3 times with either each antigen, or both, in the presence of encapsulated PS-ODN 1 m. As positive control we used dendritic cells known to be potent in inducing CTL responses. B16 lysate containing multiple epitopes was also assayed either with ODN1m or DC for the ability to induce multi-epitope immunity. Immune response was assessed by the ability of CD8+ T cells to mediate cytotoxicity against tumor cells in an antigen-specific manner.

B16/BL6 murine melanoma = test: therapeutic anti-tumor efficacy, B-16 melanoma tumor model; assay type: in vivo, C57BI/6 mice; details: lipid encapsulated (DSPC:CHOL:DODAP:PEGCer14); 20 mg/kg ODN i.v. every other day from day 4
Protocol: Anti-tumor efficacy induced by intravenous tail immunization was assessed in C57BI/6 (8 animals per group) in a therapeutic immunization model. Animals were challenged with a subcutaneous injection of 3.0×10^5 […] B16/BL6 murine melanoma expressing tumor cells on Day-0. Mice were then treated intravenously every other day starting on day 4 for 14 days at a dose of 20 mg/kg ODN. Mice were monitored every other day to assess tumor growth and weight gain. Control mice were injected with HBS on the same schedule described above. Oligonucleotides were encapsulated in a lipid particle having a lipid composition of DSPC: CHOL: DODAP:PEGCer14 each in a ratio of 25:45:20:10. Results from this efficacy experiments are detailed in FIGS. 16 and 17. Day 0 on each of the Figures is the day each animal was challenged with the tumor.

## ODN1m: 5′-TAAZGTTGAGGGGCAT-3, SEQ ID NO: 4, Z = methylated cytosine (DNA TAACGTTGAGGGGCAT; DNA, [5mC] at 4, backbone not given here; tested with both phosphodiester and phosphorothioate backbones)
[1]; free ODN, 100 μg ODN + 20 μg OVA s.c. q7d×3, tumor challenge Day 21
  reduction in tumor growth: approached the rate of the control animal
[1]; lipid encapsulated ODN, PO backbone, 100 μg ODN + 20 μg OVA s.c. q7d×3
  reduction in tumor growth: therapeutic efficacy was greatest with the methylated version 32 days after transplantation
[1]; lipid encapsulated ODN, PS backbone, 100 μg ODN + 20 μg OVA s.c. q7d×3
  reduction in tumor growth: equal in therapeutic efficacy in comparison to the unmethylated ODN1; also recorded: improved efficacy
[1]; lipid encapsulated ODN, FIG. 19A
  percentage of tumor free animals: greater percentage of tumor free animals
[1]; lipid encapsulated ODN, FIG. 19B
  number of animals remaining in the study: essentially identical throughout the study
[1]; lipid encapsulated ODN, versus unmethylated counterpart
  survival rate of mice: increase in the survival rate
B16 cell target
  CTL response: a CTL response was raised against both antigens
B16/BL6 murine melanoma
  reduction of tumor volume: increased its efficacy in reducing tumor volume

Reference: patent publication US20040013649A1, “Cancer vaccines and methods of using the same” (Inex Pharmaceuticals Corporation, priority 2002, published 2004)
